Assay results reported in ChEMBL document CHEMBL1201862, “PubChem BioAssay data set” (2004).
The source made the active and inactive calls.

Key:
Escherichia coli = assay: microbe, parasite or virus in culture
[1] = control 3'UTR Renilla luciferase suppression, dose response, counter-screen for Shn3 inhibitor project, cell-based, Clone20-Shn3RL, cherry-picked (AID 624133); type: functional
[2] = Shn3 3'UTR reporter inhibitors, dose response, cell-based, Clone20 osteoblasts, firefly luciferase, cherry-picked (AID 624132); type: functional;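 note: firefly luciferase luminescence from reporter carrying the Shn3 3'UTR in osteoblasts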
[3] = inhibitors of intracellular T. cruzi replication, confirmation, NIH3T3 host cells, beta-gal luminescence (AID 2044); type: functional, cell-based;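 note: intracellular parasites grown in NIH/3T3 mouse fibroblasts as host cells; luminescent beta-galactosidase reporter signal from transgenic T. cruzi replicating inside host cells; inhibitors lower the luminescence signal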
[4] = cytotoxicity toward NIH3T3 fibroblasts, dose response, counter-screen, cell-based, ATP luminescence, mouse fibroblasts (AID 2010); type: functional;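 note: cells exposed to compound for about 90 hours before reading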
[5] = HepG2 cell cytotoxicity, dose response, cytotoxicity control for Shn3 inhibitor project, CellTiter-Glo, cherry-picked (AID 624134); type: functional, cell-based
Cysteine protease ATG4B = biological target: T1, Cysteine protease ATG4B (Homo sapiens, UniProt Q9Y4P1); type: functional;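 note: Fluorescence-based dose-response confirmation assay measuring inhibition of ATG4B activity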
T1 sequence (Q9Y4P1 whole entry): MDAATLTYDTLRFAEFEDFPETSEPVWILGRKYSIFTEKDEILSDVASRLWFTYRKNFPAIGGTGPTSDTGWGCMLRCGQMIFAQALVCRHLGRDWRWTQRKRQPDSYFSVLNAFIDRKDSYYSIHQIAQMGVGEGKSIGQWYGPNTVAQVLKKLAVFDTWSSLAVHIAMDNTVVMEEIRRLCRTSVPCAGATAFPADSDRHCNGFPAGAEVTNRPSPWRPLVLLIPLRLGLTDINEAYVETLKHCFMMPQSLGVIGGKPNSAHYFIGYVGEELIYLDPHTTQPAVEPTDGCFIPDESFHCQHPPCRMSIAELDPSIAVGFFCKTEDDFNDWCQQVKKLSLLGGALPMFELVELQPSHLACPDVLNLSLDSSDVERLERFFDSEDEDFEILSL

Phospholipase A2 = Phospholipase A2 (Homo sapiens, UniProt P04054); type: functional;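 note: confirmatory dose-response counterscreen on phospholipase A2, testing hits that came from an ultra-high-throughput screen for ATG4B inhibitors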
HeLa = assay: HeLa cell cytotoxicity, dose response, cytotoxicity control for MITF activator project, CellTiter-Glo luminescence, cherry-pick samples (AID 540259); type: functional, cell-based; conditions: Homo sapiens
[6] = biological target: Glucose-6-phosphate 1-dehydrogenase (Homo sapiens, UniProt P11413); assay: human G6PD enzyme inhibitors, dose response, selectivity assay for P. falciparum G6PD inhibitor project, biochemical, fluorescence (AID 504792); type: functional
[7] = biological target: T2, Mannose-6-phosphate isomerase (Homo sapiens, UniProt P34949); assay: human PMI inhibitors, high substrate, primary screen, biochemical, fluorescence intensity, high mannose 6-phosphate (AID 1220)
T2 sequence (P34949 whole entry): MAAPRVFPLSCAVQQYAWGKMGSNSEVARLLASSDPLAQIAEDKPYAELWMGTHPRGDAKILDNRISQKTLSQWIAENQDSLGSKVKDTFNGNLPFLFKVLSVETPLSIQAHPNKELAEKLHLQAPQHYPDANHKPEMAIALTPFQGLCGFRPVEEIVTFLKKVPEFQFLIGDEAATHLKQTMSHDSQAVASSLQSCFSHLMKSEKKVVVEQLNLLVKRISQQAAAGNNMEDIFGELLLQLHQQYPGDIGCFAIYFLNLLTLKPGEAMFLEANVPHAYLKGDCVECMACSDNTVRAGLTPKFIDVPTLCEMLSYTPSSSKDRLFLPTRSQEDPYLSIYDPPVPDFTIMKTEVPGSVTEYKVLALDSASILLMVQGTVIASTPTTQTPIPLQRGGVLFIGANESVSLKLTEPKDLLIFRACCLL

[8] = biological target: T3, Adenosylmethionine-8-amino-7-oxononanoate aminotransferase (Mycobacterium tuberculosis, UniProt P9WQ81); assay: Mycobacterium tuberculosis BioA enzyme inhibitor Measured in Biochemical System Using Plate Reader - 2163-02_Inhibitor_Dose_CherryPick_Activity.; type: functional, Mycobacterium tuberculosis UT205
T3 sequence (P9WQ81 whole entry): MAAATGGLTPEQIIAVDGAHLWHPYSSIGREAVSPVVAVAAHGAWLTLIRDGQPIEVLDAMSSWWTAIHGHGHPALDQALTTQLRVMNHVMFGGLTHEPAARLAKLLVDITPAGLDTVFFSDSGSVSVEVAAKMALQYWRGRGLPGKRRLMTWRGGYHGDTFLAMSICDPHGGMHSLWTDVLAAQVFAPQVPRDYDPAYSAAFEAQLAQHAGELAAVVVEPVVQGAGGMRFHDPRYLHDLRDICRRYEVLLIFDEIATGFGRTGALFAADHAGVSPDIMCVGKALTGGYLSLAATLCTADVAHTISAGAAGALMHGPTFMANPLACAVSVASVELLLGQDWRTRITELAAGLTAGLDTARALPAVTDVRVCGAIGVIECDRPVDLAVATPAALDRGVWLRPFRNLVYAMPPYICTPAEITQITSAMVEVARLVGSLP

[9] = Luminescence Cell-Based Dose Response HTS to Identify Inhibitors of 5'UTR Stem-Loop Driven Prion Protein mRNA Translation in H4 Neuroglioblastoma Cells. [Related pubchem assays: 1827 (Project Summary), 1813 (Primary HTS)]; type: functional
[10] = C. albicans growth with fluconazole, confirmation, fluorescence, retest (AID 2467); type: functional, cell-based
Nonstructural protein 1 = Nonstructural protein 1 (Influenza A virus, UniProt Q194T2); type: functional, Influenza A virus (A/California/07/2009(H1N1))
[11] = inhibitors of SNCA 5'UTR-driven reporter translation, confirmation, H4 neuroglioma cells, luminescence (AID 1988); type: functional, cell-based
[12] = biological target: FAD-linked sulfhydryl oxidase ALR (Homo sapiens, UniProt P55789); assay: inhibitors of human ALR sulfhydryl oxidase, dose response, biochemical, H2O2 detection, luminescence, cherry-pick (AID 493248)
[13] = inhibitors of firefly luciferase expression or activity, dose response, H4 neuroglioma cells, luminescence (AID 1990); type: functional, cell-based
[14] = NIH-3T3 fibroblast cytotoxicity, dose response, cytotoxicity control, cell-based, fluorescence, Alamar Blue, secondary assay (AID 2327); type: functional;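 note: NIH-3T3 mouse fibroblasts cultured with fluconazole at 8 µg/mL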

Phospholipase A2, sequence (P04054 whole entry): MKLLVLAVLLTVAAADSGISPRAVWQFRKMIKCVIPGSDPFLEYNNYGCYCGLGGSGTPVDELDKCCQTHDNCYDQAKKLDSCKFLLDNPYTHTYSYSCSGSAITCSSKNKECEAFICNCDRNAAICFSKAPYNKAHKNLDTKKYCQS
FAD-linked sulfhydryl oxidase ALR, sequence (P55789 whole entry): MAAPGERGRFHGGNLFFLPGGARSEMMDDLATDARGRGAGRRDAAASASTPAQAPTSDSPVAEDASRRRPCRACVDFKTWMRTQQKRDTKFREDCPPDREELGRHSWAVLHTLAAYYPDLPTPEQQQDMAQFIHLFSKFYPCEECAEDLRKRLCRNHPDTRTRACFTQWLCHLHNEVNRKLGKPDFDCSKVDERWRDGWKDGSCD
Glucose-6-phosphate 1-dehydrogenase, sequence (P11413 whole entry): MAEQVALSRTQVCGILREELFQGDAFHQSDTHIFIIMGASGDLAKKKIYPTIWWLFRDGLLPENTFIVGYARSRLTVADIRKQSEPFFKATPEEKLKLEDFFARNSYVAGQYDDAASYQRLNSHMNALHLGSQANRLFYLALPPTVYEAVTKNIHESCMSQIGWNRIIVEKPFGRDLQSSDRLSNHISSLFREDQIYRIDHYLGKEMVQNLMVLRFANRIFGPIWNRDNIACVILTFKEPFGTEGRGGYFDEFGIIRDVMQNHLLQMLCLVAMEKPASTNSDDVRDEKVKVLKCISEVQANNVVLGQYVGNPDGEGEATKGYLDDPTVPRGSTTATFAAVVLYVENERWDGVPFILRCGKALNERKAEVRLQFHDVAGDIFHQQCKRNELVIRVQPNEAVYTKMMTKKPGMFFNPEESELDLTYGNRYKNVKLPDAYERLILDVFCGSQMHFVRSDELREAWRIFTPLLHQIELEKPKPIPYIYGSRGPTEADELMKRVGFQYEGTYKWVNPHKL
Nonstructural protein 1, sequence (Q194T2 whole entry): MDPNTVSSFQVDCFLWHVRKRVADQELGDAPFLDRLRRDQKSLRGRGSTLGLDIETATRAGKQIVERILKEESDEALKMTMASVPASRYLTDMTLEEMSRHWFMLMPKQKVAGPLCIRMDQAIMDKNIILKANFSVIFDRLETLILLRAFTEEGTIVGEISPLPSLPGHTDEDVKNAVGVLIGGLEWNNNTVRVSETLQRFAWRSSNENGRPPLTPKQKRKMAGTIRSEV

SMILES: COc1ccc(OC)c(S(=O)(=O)NCCc2ccccc2)c1
- AC50 (Escherichia coli): 28.4 µM (active)

SMILES: CCOc1cc(CNCc2ccccc2)ccc1OCc1ccc(Cl)cc1
- AC50 [1]: 5.41 µM (active)
- AC50 [2]: 6.69 µM (active)
- EC50 [3]: 2.88 µM (active)
- EC50 [4]: > 16 µM (not active)
- AC50 [5]: 19.7 µM (active)

SMILES: C[C@@H]1C(c2ccc(F)cc2)=NN(c2ccccc2)[C@H]1C(=O)N1CCOC1=O
- AC50 (Escherichia coli): 33.5 µM (active)

SMILES: CCc1ccc2c(c1)C(c1ccc([N+](=O)[O-])cc1)=NNC(c1ccccc1)=N2
- IC50 (Cysteine protease ATG4B): 0.399 µM (active)
- IC50 (Phospholipase A2): 0.357 µM (active)

SMILES: COc1ccc2nc3ccccc3nc2c1
- AC50 (HeLa): 73.5 µM (active)

SMILES: C=CCOc1ccc(CNc2ccc3[nH]c(O)nc3c2)cc1OC
- IC50 [6]: 53.4 µM (inactive)
- IC50 [7]: > 50 µM (not active)

SMILES: CCCOc1ccc2c3c(c(=O)oc2c1OCCC)CCC3
- AC50 [8]: 14.7 µM (active)
- IC50 (Cysteine protease ATG4B): 11.4 µM (active)
- IC50 (Phospholipase A2): 7.13 µM (active)

SMILES: Cc1ccc(S(=O)(=O)Nc2ccc(O)c3ncccc23)cc1
- EC50 [9]: > 30 µM (not active)
- EC50 [10]: 2.12 µM (inconclusive)
- AC50 [1]: 0.715 µM (active)
- IC50 (Nonstructural protein 1): 16 µM (active)
- EC50 [11]: 10.6 µM (active)
- AC50 [12]: 5.2 µM (active)
- AC50 [2]: 1.55 µM (active)
- EC50 [13]: 15.1 µM (active)
- AC50 [5]: 41.4 µM (active)
- EC50 [14]: 28.4 µM (active)

SMILES: CCCN1C(=O)C(=O)N(CC(=O)c2cc(C)n(C3CC3)c2C)C1=O
- AC50 (HeLa): 62.6 µM (active)
